In patent EP2020405A1, “Substituted aryl or heteroarylpiperidine derivatives as melanocortin-4 receptor modulators” (Santhera Pharmaceuticals (Schweiz) AG, priority 2007, dated 2009):

Legend:
hMC-4R [1] = target: T1, hMC-4R (Homo sapiens, UniProt P32245); assay: Functional assay (membrane based cAMP fluorescence polarization, agonistic activity); format: biochemical; parameters: concentration or dose not given beside the values; conditions: cAMP produced compared to stimulation with NDP-alpha-MSH
T1 construct: expressed in transfected cells; host or cells: HEK293
T1 sequence (P32245 whole entry): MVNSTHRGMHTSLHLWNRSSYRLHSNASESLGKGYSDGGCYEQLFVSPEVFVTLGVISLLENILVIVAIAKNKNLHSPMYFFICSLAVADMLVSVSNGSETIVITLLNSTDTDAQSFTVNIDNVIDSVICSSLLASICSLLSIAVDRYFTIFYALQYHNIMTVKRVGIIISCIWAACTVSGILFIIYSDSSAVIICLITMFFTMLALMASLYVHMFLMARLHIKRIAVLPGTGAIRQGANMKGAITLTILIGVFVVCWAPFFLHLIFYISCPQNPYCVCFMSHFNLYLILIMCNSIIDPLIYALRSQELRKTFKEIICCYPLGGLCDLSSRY
Protocol: Agonistic activity of human melanocortin receptors is determined in a homogeneous membrane based assay.
Membrane preparations from HEK293 cells expressing the human melanocortin receptors are added. After a short preincubation period, an appropriate amount of ATP, GTP and the cAMP antibody is added and the plate is further incubated before the fluorescence labeled cAMP conjugate is dispensed. The plate is incubated for 2 h at 4°C before it is read on a fluorescence polarization microplate reader. The amount of cAMP produced as a response to a test compound is compared to the production of cAMP resulting from stimulation with NDP-alpha-MSH.

hMC-4R [2] = target: T1, hMC-4R; assay: Membrane binding assay (fluorescence polarization, competition with fluorescence labeled NDP-alpha-MSH); conditions: HEK293 cell membrane preparations expressing human melanocortin receptors; 5 h at room temperature

CCC(COc1cc(Cl)ccc1C1CCN(C(=O)[C@@H](Cc2ccc(Cl)cc2Cl)N2CCCC2)CC1)N1CCCC1 (stereo partly drawn) [Example 3]
% activation functional assay (hMC-4R [1]): 0%
IC50 (hMC-4R [2]): 2.1 nM

CCC(CN1CCCC1)Oc1cc(Cl)ccc1C1CCN(C(=O)[C@@H](Cc2ccc(Cl)cc2Cl)N2CCCC2)CC1 (stereo partly drawn) [Example 4]
% activation functional assay (hMC-4R [1]): 0%
IC50 (hMC-4R [2]): 2.4 nM

O=C(C(Cc1ccc(Cl)cc1Cl)N1CCCCC1)N1CCC(c2ccc(Cl)cc2OCCN2CCCC2)CC1 (stereo not drawn) [Example 10]
% activation functional assay (hMC-4R [1]): 14%
IC50 (hMC-4R [2]): 62 nM

O=C(C(Cc1ccc(Cl)cc1Cl)N1CCCCC1)N1CCC(c2cc(F)ccc2CCN2CCCC2)CC1 (stereo not drawn) [Example 15]
% activation functional assay (hMC-4R [1]): 0%
IC50 (hMC-4R [2]): 180 nM

CCC(Cc1cc(Cl)ccc1C1CCN(C(=O)C(Cc2ccc(Cl)cc2Cl)n2cncn2)CC1)CN1CCCC1 (stereo not drawn) [Example 22]
% activation functional assay (hMC-4R [1]): 0%
IC50 (hMC-4R [2]): 17 nM

O=C(C(Cc1ccc(Cl)cc1Cl)n1cncn1)N1CCC(c2ccc(Cl)cc2OCCN2CCCC2)CC1 (stereo not drawn) [Example 23]
% activation functional assay (hMC-4R [1]): 0%
IC50 (hMC-4R [2]): 7.7 nM

O=C(C(Cc1ccc(Cl)cc1Cl)N1CCOCC1)N1CCC(c2ccc(Cl)cc2OCCN2CCCC2)CC1 (stereo not drawn) [Example 25]
% activation functional assay (hMC-4R [1]): 0%
IC50 (hMC-4R [2]): 100 nM

O=C(C(Cc1ccc(Cl)cc1Cl)Nc1cccnc1)N1CCC(c2ccc(Cl)cc2OCCN2CCCC2)CC1 (stereo not drawn) [Example 27]
% activation functional assay (hMC-4R [1]): 0%
IC50 (hMC-4R [2]): 5.9 nM

Cc1ccn(C(Cc2ccc(Cl)cc2Cl)C(=O)N2CCC(c3ccc(Cl)cc3OCCN3CCCC3)CC2)n1 (stereo not drawn) [Example 34]
% activation functional assay (hMC-4R [1]): 0%
IC50 (hMC-4R [2]): 220 nM
